Assays:
MCF7 CARM1 KO cells = experiment: Quantitative MS of ADMA-containing peptides in MCF7 CARM1 KO cells expressing CARM1 28-608 or CARM1 140-608, and in CARM1 KO; format: cell-based, human
MCF7 cells = experiment: Quantitative nanoLC-MS/MS (TMT) of ADMA-containing peptides, CARM1 KO vs parental; format: cell-based, human; set-up: Fold change KO/WT: scale not given here
[1] = mean, CARM1 140-608 versus WT (log2 scale)
[2] = mean, CARM1 KO versus WT (log2 scale)
[3] = MCF7 CARM1 knockout vs wild type, 3 biological replicates each, values are on log2 scale
[4] = log2 scale ratio, mean of n = 3
[5] = ADMA-containing peptide, MCF7, CARM1 knockout (KO1-3) vs wild type (WT1-3), TMT 6-plex experiment #1
[6] = CARM1 140-608 versus WT, mean of three replicates (log2)
[7] = KO versus WT, mean of three replicates (log2)
[8] = ADMA-containing peptide, CARM1 knockout (KO) vs wild type (WT) MCF7 cells, 6-plex TMT experiment #1, three biological replicates each, sheet "MCF7"
[9] = CARM1 140-608 vs WT, mean of 3 replicates (log2 scale)
[10] = KO vs WT, mean of 3 replicates (log2 scale)
[11] = MCF7, CARM1 KO (KO1-KO3) vs wild type (WT1-WT3)
[12] = ratio on log2 scale, mean of 3 replicates
[13] = MCF7, CARM1 knockout vs wild type, n = 3 each
[14] = CARM1 140-608 vs WT, mean of 3 replicates, log2
[15] = KO vs WT, mean of 3 replicates, log2
[16] = MCF7, CARM1 KO vs WT, three biological replicates each
[17] = difference of log2 means, CARM1 140-608 vs WT
[18] = difference of log2 means, KO vs WT

For ASrGrGGLGPSWASANSGSGGSrGK, the “CARM1 140-608/WT” value (MCF7 CARM1 KO cells; [1]) was 0.01356, the KO/WT (MCF7 CARM1 KO cells; [2]) was 0.5944 and the “Fold change KO/WT” value (MCF7 cells; [3]) was 0.06985.

In the case of FGDMSYSIrHSISMPAMR, the “CARM1 140-608/WT” value (MCF7 CARM1 KO cells; [4]) is reported as -2.806, the KO/WT (MCF7 CARM1 KO cells; [4]) is reported as -3.258 and the “Fold change KO/WT” value (MCF7 cells; [5]) is reported as -3.258.

With SQGAQPQQVTLrLALR the “CARM1 140-608/WT” value (MCF7 CARM1 KO cells; [6]) was -1.727, the KO/WT (MCF7 CARM1 KO cells; [7]) was -1.987 and the “Fold change KO/WT” value (MCF7 cells; [8]) was -1.987.

FrLSLFSDLPEDTELQR was tested, and the “CARM1 140-608/WT” value (MCF7 CARM1 KO cells; [9]) was -2.025, the KO/WT (MCF7 CARM1 KO cells; [10]) was -2.692 and the “Fold change KO/WT” value (MCF7 cells; [11]) was -2.692.

GGrGPFPLQVVSVGGPAR was tested, and the “CARM1 140-608/WT” value (MCF7 CARM1 KO cells; [12]) was -0.1124, the KO/WT (MCF7 CARM1 KO cells; [12]) was -0.2975 and the “Fold change KO/WT” value (MCF7 cells; [13]) was -0.2975.

In the case of LGrLLGIFEQNQDRKHR, the “CARM1 140-608/WT” value (MCF7 CARM1 KO cells; [6]) is reported as -0.3444, the KO/WT (MCF7 CARM1 KO cells; [7]) is reported as -0.4775 and the “Fold change KO/WT” value (MCF7 cells; [8]) is reported as -0.4775.

For GQPVGGLrFEGPHGQPVGGLrFDNPR, the “CARM1 140-608/WT” value (MCF7 CARM1 KO cells; [6]) was 0.02925, the KO/WT (MCF7 CARM1 KO cells; [7]) was -0.8726 and the “Fold change KO/WT” value (MCF7 cells; [8]) was -1.132.

In the case of YSAFQLAPFQDHGLPAVSVDSPVrYK, the “CARM1 140-608/WT” value (MCF7 CARM1 KO cells; CARM1 140-608 versus WT, difference of mean log2 values) is reported as -1.433, the KO/WT (MCF7 CARM1 KO cells; CARM1 KO versus WT, difference of mean log2 values) is reported as -2.156 and the “Fold change KO/WT” value (MCF7 cells; CARM1 KO vs wild type MCF7 cells, 3 biological replicates each) is reported as -2.156.

In the case of QLPNAGPGAPPALGFSrFPAGArYAGAGGLER, the “CARM1 140-608/WT” value (MCF7 CARM1 KO cells; [14]) is reported as -2.691, the KO/WT (MCF7 CARM1 KO cells; [15]) is reported as -4.1849 and the “Fold change KO/WT” value (MCF7 cells; [16]) is reported as -4.1849.

For QLrYQQPGPGSSPSSFLLK, the “CARM1 140-608/WT” value (MCF7 CARM1 KO cells; [14]) was -1.181, the KO/WT (MCF7 CARM1 KO cells; [15]) was -5.114 and the “Fold change KO/WT” value (MCF7 cells; [16]) was -4.8874.

EPLVATNLPGrGQLQK was tested, and the “CARM1 140-608/WT” value (MCF7 CARM1 KO cells; [4]) was -0.7114, the KO/WT (MCF7 CARM1 KO cells; [4]) was -0.7768 and the “Fold change KO/WT” value (MCF7 cells; [5]) was -0.7768.

With DPFSQALSrCQLQQAAALNAQHK the “CARM1 140-608/WT” value (MCF7 CARM1 KO cells; [12]) was -1.585, the KO/WT (MCF7 CARM1 KO cells; [12]) was -2.1 and the “Fold change KO/WT” value (MCF7 cells; [13]) was -2.1.

SHGYKPHFVPNFNGPNAIrQFQPNQINENWK was tested, and the “CARM1 140-608/WT” value (MCF7 CARM1 KO cells; [12]) was -1.237, the KO/WT (MCF7 CARM1 KO cells; [12]) was -2.033 and the “Fold change KO/WT” value (MCF7 cells; [13]) was -2.033.

With AQPFAQPPGPWPLSSPGPrLVFNR the “CARM1 140-608/WT” value (MCF7 CARM1 KO cells; [12]) was -2.181, the KO/WT (MCF7 CARM1 KO cells; [12]) was -4.994 and the “Fold change KO/WT” value (MCF7 cells; [13]) was -4.7261.

For SGFAATSQPGPrLPFIQHSQNPR, the “CARM1 140-608/WT” value (MCF7 CARM1 KO cells; [1]) was -0.196, the KO/WT (MCF7 CARM1 KO cells; [2]) was -1.374 and the “Fold change KO/WT” value (MCF7 cells; [13]) was -1.049.

For “GrGTLTrGAFVGATAAPGYIAPGYGTPYGYSTAAPAYGLPK”, the “CARM1 140-608/WT” value (MCF7 CARM1 KO cells; [4]) was -0.05087, the KO/WT (MCF7 CARM1 KO cells; [4]) was 0.2558 and the “Fold change KO/WT” value (MCF7 cells; [5]) was 0.06714.

In the case of QALGSPLAGISTrLPGPGEPVPGPAGPAQFIELrHNVQK, the “CARM1 140-608/WT” value (MCF7 CARM1 KO cells; [17]) is reported as -1.36, the KO/WT (MCF7 CARM1 KO cells; [18]) is reported as -2.458 and the “Fold change KO/WT” value (MCF7 cells; [3]) is reported as -2.458.

NrGAGGFGGGGGTR was tested, and the “CARM1 140-608/WT” value (MCF7 CARM1 KO cells; [14]) was 0.06902, the KO/WT (MCF7 CARM1 KO cells; [15]) was 0.4755 and the “Fold change KO/WT” value (MCF7 cells; [16]) was -0.03405.

MAPALSGANLTSPrVPLSAYER was tested, and the “CARM1 140-608/WT” value (MCF7 CARM1 KO cells; [4]) was -3.667, the KO/WT (MCF7 CARM1 KO cells; [4]) was -5.009 and the “Fold change KO/WT” value (MCF7 cells; [5]) was -4.135.

In the case of QSSATSSFGGLGGGSVrFGPGVAFrAPSIHGGSGGR, the “CARM1 140-608/WT” value (MCF7 CARM1 KO cells; [17]) is reported as -1.331, the KO/WT (MCF7 CARM1 KO cells; [18]) is reported as -1.828 and the “Fold change KO/WT” value (MCF7 cells; [3]) is reported as -1.828.

In the case of EIrYSLLPFANESGTSAAAEVNR, the “CARM1 140-608/WT” value (MCF7 CARM1 KO cells; [17]) is reported as -1.601, the KO/WT (MCF7 CARM1 KO cells; [18]) is reported as -3.011 and the “Fold change KO/WT” value (MCF7 cells; [3]) is reported as -3.011.

In the case of VrPVLNLPGPGPALPrALER, the “CARM1 140-608/WT” value (MCF7 CARM1 KO cells; [17]) is reported as -2.008, the KO/WT (MCF7 CARM1 KO cells; [18]) is reported as -2.391 and the “Fold change KO/WT” value (MCF7 cells; [8]) is reported as -2.391.

For ACLTSGTPGPrAQLTAVTPDTR, the “CARM1 140-608/WT” value (MCF7 CARM1 KO cells; [1]) was -1.022, the KO/WT (MCF7 CARM1 KO cells; [2]) was -1.3764 and the “Fold change KO/WT” value (MCF7 cells; [3]) was -1.3764.

For LVPrLSVGAVSSKPTTPTIATPQTVSVPNK, the “CARM1 140-608/WT” value (MCF7 CARM1 KO cells; [4]) was -1.646, the KO/WT (MCF7 CARM1 KO cells; [4]) was -1.953 and the “Fold change KO/WT” value (MCF7 cells; [5]) was -1.953.

With NPFLTGLSAPSPTNPFGAGEPGrPTLNQMR the “CARM1 140-608/WT” value (MCF7 CARM1 KO cells; [12]) was -2.593, the KO/WT (MCF7 CARM1 KO cells; [12]) was -3.967 and the “Fold change KO/WT” value (MCF7 cells; [13]) was -3.967.

With LPGTPPLFSPPPrHHLDPHR the “CARM1 140-608/WT” value (MCF7 CARM1 KO cells; [14]) was -1.232, the KO/WT (MCF7 CARM1 KO cells; [15]) was -1.196 and the “Fold change KO/WT” value (MCF7 cells; [16]) was -1.221.

With KDLYANTVLSGGSTMYPGIADr the “CARM1 140-608/WT” value (MCF7 CARM1 KO cells; [14]) was -0.3764, the KO/WT (MCF7 CARM1 KO cells; [15]) was -0.3193 and the “Fold change KO/WT” value (MCF7 cells; [16]) was -0.3193.

SPFLGSArPrLrFSPYQIPVTIPPSTSLLTTGLASEGSK was tested, and the “CARM1 140-608/WT” value (MCF7 CARM1 KO cells; [4]) was -2.053, the KO/WT (MCF7 CARM1 KO cells; [4]) was -3.915 and the “Fold change KO/WT” value (MCF7 cells; [5]) was -3.915.

STArFTLNPNPTGVQNPHIER was tested, and the “CARM1 140-608/WT” value (MCF7 CARM1 KO cells; [17]) was -1.926, the KO/WT (MCF7 CARM1 KO cells; [18]) was -2.347 and the “Fold change KO/WT” value (MCF7 cells; [8]) was -1.9764.

With QTGSPGMIYSTrYGSPK the “CARM1 140-608/WT” value (MCF7 CARM1 KO cells; [1]) was -2.435, the KO/WT (MCF7 CARM1 KO cells; [2]) was -3.403 and the “Fold change KO/WT” value (MCF7 cells; [3]) was -3.282.

For GGrGrGSLNHMVVDHRPK, the “CARM1 140-608/WT” value (MCF7 CARM1 KO cells; [9]) was 0.3773, the KO/WT (MCF7 CARM1 KO cells; [10]) was 0.3337 and the “Fold change KO/WT” value (MCF7 cells; [11]) was 0.3337.

With GALSISAPLGDFrHTLHVGR the “CARM1 140-608/WT” value (MCF7 CARM1 KO cells; [12]) was -1.004, the KO/WT (MCF7 CARM1 KO cells; [12]) was -1.149 and the “Fold change KO/WT” value (MCF7 cells; [16]) was -1.149.

With AGSQGGrGGGAQAAAR the “CARM1 140-608/WT” value (MCF7 CARM1 KO cells; [14]) was 0.1432, the KO/WT (MCF7 CARM1 KO cells; [15]) was 0.7684 and the “Fold change KO/WT” value (MCF7 cells; [16]) was 0.4231.

— PMC5458078, “Global mapping of CARM1 substrates defines enzyme specificity and substrate recognition” (Nature Communications, 2017)
